Laboratory results taken from PubChem BioAssay (NCI).
Where “and” joins values, the source holds several entries; their conditions need not be identical. Identical values can stand only once.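 These data come from cells grown in 96-well plates and exposed to compound for 48 hours at five concentrations. The concentration for 50% growth inhibition is given as GI50. The concentration for full growth arrest is given as TGI.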

What was measured:
Test in all cases: inhibition of tumour cell growth, NCI panel, 48 h
HS 578T breast = test system: HS 578T breast
OVCAR-8 ovarian = test system: OVCAR-8 ovarian
ACHN renal = test system: ACHN renal
SK-MEL-28 melanoma = test system: SK-MEL-28 melanoma
SNB-75 CNS = test system: SNB-75 CNS
SF-539 CNS = test system: SF-539 CNS
SN12C renal = test system: SN12C renal
EKVX NSCLC = test system: EKVX NSCLC
HOP-62 NSCLC = test system: HOP-62 NSCLC
SK-MEL-2 melanoma = test system: SK-MEL-2 melanoma

SMILES	GI50 (HS 578T breast) [µM]	TGI (HS 578T breast)	GI50 (OVCAR-8 ovarian) [µM]	TGI (OVCAR-8 ovarian)	GI50 (ACHN renal) [µM]	TGI (ACHN renal)	GI50 (SK-MEL-28 melanoma)	TGI (SK-MEL-28 melanoma)	GI50 (SNB-75 CNS)	TGI (SNB-75 CNS)	GI50 (SF-539 CNS)	TGI (SF-539 CNS)	GI50 (SN12C renal) [µM]	TGI (SN12C renal)	GI50 (EKVX NSCLC) [µM]	TGI (EKVX NSCLC)	GI50 (HOP-62 NSCLC) [µM]	TGI (HOP-62 NSCLC)	GI50 (SK-MEL-2 melanoma)	TGI (SK-MEL-2 melanoma)
Cn1cc(-c2nn3cc(-c4cccs4)nc3s2)c2cc(F)ccc21	2.34	13.4 µM	4.53	> 100 µM	3.39	86.8 µM	7.23 µM	> 100 µM	1.29 µM	6.45 µM	2.18 µM	7.54 µM	4.71	> 100 µM	2.51	> 100 µM	1.92	23.1 µM	1.59 µM	7.29 µM
Cc1cc(N)c2ccccc2[n+]1CCCCCCCCCC[n+]1c(C)cc(N)c2ccccc21	0.303	> 19.2 µM and 29.6 µM	0.218	1.99 µM and 13.8 µM		> 50 µM and 7.15 µM and 17.9 µM	0.277 µM and 1.18 µM	1.33 µM and 5.09 µM and 3.28 µM	0.212 µM and 0.249 µM	6.77 µM and 6.72 µM and 11 µM	0.241 µM and 1.56 µM	1.44 µM and 9.96 µM and 3.8 µM	0.159	> 14 µM and 7.39 µM and 16.7 µM		> 50 µM and 49.4 µM and 26.9 µM	0.201	2.8 µM and 9.51 µM	0.674 µM and 1.4 µM	1.93 µM and 9.03 µM and 3.78 µM
CN1CC(C(=O)NC2(C)OC3(O)C4CCCN4C(=O)C(Cc4ccccc4)N3C2=O)C=C2c3cccc4[nH]cc(c34)CC21 (stereo not drawn)		29 µM		53.7 µM		55.1 µM		35.2 µM		> 100 µM		39 µM		43.5 µM		> 100 µM		63.2 µM		35.1 µM
CN1CCN(C(=S)SCN2C(=O)c3ccccc3S2(=O)=O)CC1	58.7	> 100 µM	46.3	> 100 µM	41.3	> 100 µM	14.4 µM	37.5 µM	24.5 µM	92.1 µM	36.8 µM	> 100 µM	52.5	> 100 µM	> 100	> 100 µM	> 100	> 100 µM	> 100 µM	> 100 µM
O=[N+]([O-])c1cccc(-c2ncc(-c3ccc(Cl)cc3Cl)[nH]2)c1	3.89	> 49.5 µM	22.4	53.3 µM	7.48	18.3 µM	1.79 µM	3.72 µM	8 µM	36.9 µM	15.4 µM	29.3 µM	6.01	12.6 µM	2.15	6.81 µM	9.53	26.8 µM	16.2 µM	41.3 µM
O=C(CN=Cc1cccs1)CSC(c1ccccc1)c1ccccc1	26.1	97 µM	22.6	55.5 µM	28.8	79.6 µM	27.7 µM	> 100 µM	30.5 µM	> 100 µM	26.6 µM	71.1 µM	19.6	36.1 µM	26.2	96.9 µM	34	> 100 µM	19 µM	34.8 µM
CN(C)c1ccc(Sc2ccc3nc(N)nc(N)c3c2)cc1	4.72	27.4 µM	0.589	9.88 µM	0.52	7.39 µM	2.76 µM	15.5 µM	2.14 µM	16.3 µM	0.985 µM	10.3 µM	0.761	14.2 µM	2.27	23.5 µM	0.884	15.6 µM	3.84 µM	16.1 µM
O=C(CC(C(=O)O)N1CCOCC1)c1ccccc1 (stereo not drawn)		88.9 µM		94.8 µM		30.7 µM		36.6 µM		83.4 µM		45.7 µM		35.7 µM		38.4 µM		86.9 µM		34.9 µM
C[C@H](NC(=O)CCC(F)(F)F)C(=O)N[C@@H]1C(=O)N(CCO)c2ncccc2-c2ccccc21	> 100	> 100 µM	> 100	> 100 µM	> 100	> 100 µM	> 100 µM	> 100 µM	> 100 µM	> 100 µM	> 100 µM	> 100 µM	> 100	> 100 µM	> 100	> 100 µM	> 100	> 100 µM	> 100 µM	> 100 µM
COc1ccc(N=C2NN=C(c3c[nH]c4ccccc34)CS2)cc1OC	5.38	> 100 µM	22.7	> 89.9 µM	17.3	> 100 µM	15.3 µM	> 90.4 µM	3.34 µM	20.6 µM	8.25 µM	> 100 µM	18.4	> 100 µM	8.77	> 100 µM	12.7	> 84.1 µM	> 100 µM	> 100 µM
COc1cc2c(cc1OC)[C@H]1C(=O)c3cc4c(cc3[C@H]1N(C)C2=O)OCO4		> 100 µM		> 100 µM		> 100 µM		> 100 µM		> 100 µM		> 77.8 µM		> 100 µM		> 100 µM		> 79.2 µM		> 100 µM
